SMILES strings stand for the structures. Values after ≈ are worked out from the molar mass of the structure shown.

Broadly, the Emax is the greatest response seen or fitted, relative to the assay's reference. Broadly, the logD is the decadic logarithm of the distribution of all forms, ionised or not, between an organic phase and buffer at a given pH. The IC50 is the concentration needed to halve the response being measured. By thermodynamic solubility is commonly meant the concentration in solution at equilibrium with solid. As usually defined, the fraction unbound is free concentration divided by total concentration. One may read the microsomal CLint as a measure of how fast metabolising enzymes remove a compound, apart from limits set by blood flow. One may read the hepatocyte CLint as a measure of how fast metabolising enzymes remove a compound, apart from limits set by blood flow. What is called EC50 is the concentration that produces a half-maximal response. The term clearance denotes the rate of elimination divided by the concentration. A word on the half-life: it is how long it takes for the measured level to halve. Usually bioavailability stands for the share of a dose that reaches the circulation, judged against a reference dose that is usually intravenous. By Papp is commonly meant the rate of passage across a membrane or cell layer, normalised by area and donor concentration.

One data set concerns the target T1, PXR (NR1I2) (Homo sapiens, UniProt O75469).
T1 sequence (O75469 whole entry): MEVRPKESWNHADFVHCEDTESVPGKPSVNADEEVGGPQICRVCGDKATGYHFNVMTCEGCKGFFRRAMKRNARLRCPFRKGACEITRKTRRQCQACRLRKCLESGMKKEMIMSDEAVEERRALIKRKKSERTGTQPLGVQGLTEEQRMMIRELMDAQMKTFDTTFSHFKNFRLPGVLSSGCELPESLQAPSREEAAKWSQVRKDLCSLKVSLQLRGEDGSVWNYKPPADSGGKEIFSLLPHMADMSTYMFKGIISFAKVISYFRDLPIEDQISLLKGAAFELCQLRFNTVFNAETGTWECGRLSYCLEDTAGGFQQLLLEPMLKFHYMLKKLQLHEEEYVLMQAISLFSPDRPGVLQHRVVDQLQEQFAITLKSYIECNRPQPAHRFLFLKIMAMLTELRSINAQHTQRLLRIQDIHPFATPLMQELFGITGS
The experiment in a line: Activation of human PXR expressed in african green monkey CV1 cells transfected with pSG5-hPXRDATG and (ER6)3-tk-CAT reporter assessed as maximal activation relative to control. The class given is cell-based, CV-1.

The nature of data set [1]: Lipophilicity, log D of the compound. The class given is physicochemical. As to conditions: octanol/water.
The subject of a further data set is rhinovirus A16. The data set is described as follows: Antiviral activity against Human rhinovirus 16 infected in human HeLa Ohio cells assessed as inhibition of virus-induced cytopathic effect by CellTiter-Glo assay. In kind it is functional, organism-based. As to conditions: Rhinovirus A. (Damage to the host cells serves as the signal in cytopathic effect assays.)

A further data set concerns rhinovirus B14. The experiment in a line: Antiviral activity against Human rhinovirus 14 infected in human HeLa Ohio cells assessed as inhibition of virus-induced cytopathic effect by CellTiter-Glo assay. In kind it is functional, organism-based. As to conditions: Rhinovirus B.
Another data set concerns rhinovirus A2. The experiment in a line: Antiviral activity against Human rhinovirus 2 infected in human HeLa Ohio cells assessed as inhibition of virus-induced cytopathic effect by CellTiter-Glo assay. In kind it is functional, organism-based. As to conditions: Rhinovirus A.
Data set [2] in a line: Aqueous equilibrium solubility of the compound by shake-flask technique. In kind it is physicochemical. As to conditions: buffer.
Data set [3] can be described thus: Unbound fraction in human plasma. The class given is ADME, cell-free.
Data set [4] can be described thus: Unbound fraction in rat plasma. The class given is ADME, cell-free.
Data set [5] can be described thus: Intrinsic clearance in human microsomes after 45 mins by HPLC method. The class given is ADME, Microsome.
A short description of data set [6]: Intrinsic clearance in Sprague-Dawley rat hepatocytes assessed per 10^6 cells preincubated for 5 mins measured after 90 mins. The class given is ADME, cell-based, Liver, Hepatocyte.
Data set [7] concerns the target T2, Cytochrome P450 1A2 (Homo sapiens, UniProt P05177).
T2 sequence (P05177 whole entry): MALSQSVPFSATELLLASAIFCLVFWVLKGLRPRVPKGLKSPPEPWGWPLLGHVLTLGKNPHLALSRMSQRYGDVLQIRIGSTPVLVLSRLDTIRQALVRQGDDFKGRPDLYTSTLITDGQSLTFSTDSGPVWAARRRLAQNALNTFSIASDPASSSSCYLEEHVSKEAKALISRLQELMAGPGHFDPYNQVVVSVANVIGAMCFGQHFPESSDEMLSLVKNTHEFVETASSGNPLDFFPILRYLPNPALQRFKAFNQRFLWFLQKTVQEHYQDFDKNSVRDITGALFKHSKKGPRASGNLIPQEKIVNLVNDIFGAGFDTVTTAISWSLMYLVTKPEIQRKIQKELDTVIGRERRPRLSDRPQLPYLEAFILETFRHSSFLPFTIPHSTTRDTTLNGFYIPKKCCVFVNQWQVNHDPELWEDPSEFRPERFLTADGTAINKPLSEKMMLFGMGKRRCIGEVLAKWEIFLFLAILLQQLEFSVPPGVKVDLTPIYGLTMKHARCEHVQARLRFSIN
The experiment in a line: Inhibition of CYP1A2. The class given is ADME.

The target in data set [8] is T3, Cytochrome P450 2C9 (Homo sapiens, UniProt P11712). The data set is described as follows: Inhibition of CYP2C9. The class given is ADME.
T3 sequence (P11712 whole entry): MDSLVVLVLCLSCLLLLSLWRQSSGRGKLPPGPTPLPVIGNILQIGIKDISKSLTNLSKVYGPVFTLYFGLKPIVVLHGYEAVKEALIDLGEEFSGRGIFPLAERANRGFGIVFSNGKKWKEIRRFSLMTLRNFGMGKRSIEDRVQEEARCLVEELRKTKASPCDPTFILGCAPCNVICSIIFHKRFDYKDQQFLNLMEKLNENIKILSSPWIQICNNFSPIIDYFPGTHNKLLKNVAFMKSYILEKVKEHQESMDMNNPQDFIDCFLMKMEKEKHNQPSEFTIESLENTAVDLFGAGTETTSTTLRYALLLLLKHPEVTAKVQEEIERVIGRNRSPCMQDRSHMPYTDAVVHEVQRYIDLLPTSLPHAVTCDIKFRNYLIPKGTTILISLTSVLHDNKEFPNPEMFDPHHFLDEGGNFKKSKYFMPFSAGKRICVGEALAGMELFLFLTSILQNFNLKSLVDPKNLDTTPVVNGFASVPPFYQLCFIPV
In data set [9] the target is T4, Cytochrome P450 2C19 (Homo sapiens, UniProt P33261). The experiment in a line: Inhibition of CYP2C19. In kind it is ADME.
T4 sequence (P33261 whole entry): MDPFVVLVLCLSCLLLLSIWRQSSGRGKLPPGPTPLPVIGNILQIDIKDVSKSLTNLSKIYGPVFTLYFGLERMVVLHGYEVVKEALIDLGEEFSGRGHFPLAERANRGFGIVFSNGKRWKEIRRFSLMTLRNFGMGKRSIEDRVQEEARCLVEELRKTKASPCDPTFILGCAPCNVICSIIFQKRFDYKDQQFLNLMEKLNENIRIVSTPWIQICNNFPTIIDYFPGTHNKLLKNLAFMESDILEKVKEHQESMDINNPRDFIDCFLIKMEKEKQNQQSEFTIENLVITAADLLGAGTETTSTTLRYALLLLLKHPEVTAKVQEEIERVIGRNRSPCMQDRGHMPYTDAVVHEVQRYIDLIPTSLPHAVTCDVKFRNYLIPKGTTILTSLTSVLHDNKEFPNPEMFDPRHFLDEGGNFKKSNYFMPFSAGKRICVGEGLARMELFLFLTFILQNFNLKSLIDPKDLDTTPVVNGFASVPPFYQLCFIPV
Data set [10] addresses T5, Cytochrome P450 2D6 (Homo sapiens, UniProt P10635). The data set is described as follows: Inhibition of CYP2D6. The class given is ADME.
Data set [11] deals with T2, Cytochrome P450 1A2. The data set is described as follows: Time dependent inhibition of CYP1A2. In kind it is ADME.
For data set [12], the target named is T3, Cytochrome P450 2C9. The experiment in a line: Time dependent inhibition of CYP2C9. In kind it is ADME.
The target of data set [13] is T4, Cytochrome P450 2C19. The data set is described as follows: Time dependent inhibition of CYP2C19. In kind it is ADME.
In data set [14] the target is T5, Cytochrome P450 2D6. The experiment in a line: Time dependent inhibition of CYP2D6. The class given is ADME.
The target of data set [15] is T6, Nuclear receptor subfamily 1 group I member 2 (Homo sapiens, UniProt O75469).
T6 sequence (O75469 whole entry): T1 sequence (O75469 whole entry)
The experiment in a line: Activation of human PXR expressed in african green monkey CV1 cells transfected with pSG5-hPXRDATG and (ER6)3-tk-CAT reporter. In kind it is cell-based, CV-1.

A short description of data set [16]: Clearance in rat at 2 mg/kg, iv. The class given is ADME, organism-based. As to conditions: in vivo. Also noted: dose 2 mg/kg, route intravenous.
Data set [17] can be described thus: Half life in rat at 2 mg/kg, iv. In kind it is ADME, organism-based. As to conditions: in vivo. Also noted: dose 2 mg/kg, route intravenous.
Data set [18] can be described thus: Volume of distribution at steady state in rat at 2 mg/kg, iv. In kind it is ADME, organism-based. Also noted: dose 2 mg/kg, route intravenous. As to conditions: in vivo, read-out: Vdss.
Data set [19] in a line: Oral bioavailability in rat. The class given is ADME, organism-based. As to conditions: in vivo.
Data set [20] is described as follows: Chemical stability of compound assessed as half life. In kind it is physicochemical.
Data set [21] in a line: Apparent permeability of compound by PAMPA. The class given is ADME. (The PAMPA barrier holds no transporters, so it reflects passive diffusion.)
Data set [22] deals with T7, Cytochrome P450 3A4 (Homo sapiens, UniProt P08684). The experiment in a line: Inhibition of CYP3A4. In kind it is ADME.
T7 sequence (P08684 whole entry): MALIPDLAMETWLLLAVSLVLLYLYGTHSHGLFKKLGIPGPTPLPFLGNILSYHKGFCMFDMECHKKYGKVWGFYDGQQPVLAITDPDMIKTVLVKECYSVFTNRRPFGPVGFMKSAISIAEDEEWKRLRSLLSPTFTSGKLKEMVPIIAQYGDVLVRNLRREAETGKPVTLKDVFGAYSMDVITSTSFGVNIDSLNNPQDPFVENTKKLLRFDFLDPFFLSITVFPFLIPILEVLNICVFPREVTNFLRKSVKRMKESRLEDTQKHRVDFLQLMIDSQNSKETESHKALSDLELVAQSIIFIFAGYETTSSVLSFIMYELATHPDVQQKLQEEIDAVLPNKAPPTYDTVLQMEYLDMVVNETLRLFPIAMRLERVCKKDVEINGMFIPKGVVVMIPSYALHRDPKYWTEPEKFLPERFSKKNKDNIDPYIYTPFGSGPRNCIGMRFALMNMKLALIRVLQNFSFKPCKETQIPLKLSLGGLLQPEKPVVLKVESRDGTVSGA
Data set [23] deals with T7, Cytochrome P450 3A4. The data set is described as follows: Time dependent inhibition of CYP3A4. In kind it is ADME.

T5 sequence (P10635 whole entry): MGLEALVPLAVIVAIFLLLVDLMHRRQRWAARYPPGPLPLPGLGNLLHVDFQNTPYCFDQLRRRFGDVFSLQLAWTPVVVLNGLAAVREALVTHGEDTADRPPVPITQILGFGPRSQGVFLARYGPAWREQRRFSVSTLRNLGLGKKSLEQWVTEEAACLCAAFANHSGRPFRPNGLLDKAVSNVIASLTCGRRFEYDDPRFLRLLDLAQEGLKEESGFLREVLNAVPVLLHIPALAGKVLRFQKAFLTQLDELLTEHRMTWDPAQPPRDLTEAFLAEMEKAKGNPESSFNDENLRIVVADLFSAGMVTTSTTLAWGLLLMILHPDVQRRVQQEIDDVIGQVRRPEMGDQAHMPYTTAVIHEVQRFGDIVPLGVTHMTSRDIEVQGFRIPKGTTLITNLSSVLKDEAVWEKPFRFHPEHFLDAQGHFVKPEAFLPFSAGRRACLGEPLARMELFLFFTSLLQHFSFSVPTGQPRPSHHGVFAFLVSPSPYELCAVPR

In the case of `Cc1cc(CCCOc2c(C)cc(-c3noc(C(F)(F)F)n3)cc2C)on1` [PLECONARIL], at PXR (NR1I2), the Emax came to 88%. Besides, the logD in [1] is over 4.5. Moreover, the 50% inhibitory concentration (IC50) in the data set on rhinovirus A16 is 1000 nM; in the data set with rhinovirus B14 it was under 100 nM; in the data set with rhinovirus A2, 100 nM; against Cytochrome P450 1A2 [7], over 10000 nM; at Cytochrome P450 2C9 [8] it was over 10000 nM; against Cytochrome P450 2C19 [9], over 10000 nM. Moreover, the half-maximal inhibitory concentration (IC50) is 6310 nM against Cytochrome P450 2D6 [10]; over 50100 nM against Cytochrome P450 1A2 [11]; over 50100 nM on Cytochrome P450 2C9 [12]; over 50100 nM against Cytochrome P450 2C19 [13]; over 50100 nM against Cytochrome P450 2D6 [14]. The solubility (thermodynamic) in [2] is under 2 µM. Moreover, the fraction unbound is 0.0013 in data set [3] and under 0.002 in data set [4]. The same compound yielded a microsomal CLint in data set [5] of 22 µL/min/mg. This compound had a hepatocyte CLint in data set [6] of 20 µL/min/1e6 cells. The EC50 in data set [15] is 251 nM.
Consider `CCOC(=O)c1ccc(OCCC2CCN(c3ccc(C)nn3)CC2)cc1` [PIRODAVIR], for which the half-inhibitory concentration (IC50) is 63.1 nM with rhinovirus A16, under 100 nM in the data set with rhinovirus B14 and under 100 nM in the data set with rhinovirus A2.
As to `CCOc1nc2ccc(OCCC3CCN(c4ccc(C)nn4)CC3)cn2n1`, the half-inhibitory concentration (IC50) in the data set with rhinovirus A16 was 1580 nM.
For `CCOC(=O)c1ccc(OCC2CCN(c3ccc(C)nn3)C2)cc1` (stereo not drawn), in the data set with rhinovirus A16, the IC50 is 20 nM.
`CCOC(=O)c1ccc(OCCC2CCN(c3ccc(C)nn3)CC2)cn1`: in the data set with rhinovirus A16, the IC50 was 2510 nM.
As to `CCOC(=O)c1ccc(OCCC2(C#N)CCN(c3ccc(C)nn3)CC2)cc1`, the IC50 with rhinovirus A16 is 158 nM.
The same measure, in the same setting: as for `CCOC(=O)c1ccc(OCCC2CCN(c3ccc(C)nn3)CC2)nc1`, the figure is 63.1 nM; as for `CCOC(=O)c1ccc(OCC2CN(c3ccc(C)nn3)C2)cc1`, 63.1 nM; as for `CCOC(=O)c1ccc(CCN2CCN(c3ccc(C)nn3)CC2)cc1`, 79.4 nM.
Same read-out and setting: as for `CCOC(=O)c1ccc(OCCC2CN(c3ccc(C)nn3)C2)cc1`, the figure is 31.6 nM; as for `CCOC(=O)c1ccc(COC2CN(c3ccc(C)nn3)C2)cc1`, 63.1 nM.
In the case of `Cc1ccc(N2CC(COc3ccc(-c4noc(C)n4)cc3)C2)nn1`, at PXR (NR1I2), the Emax came out at 19%. The clearance in [16] was found to be 9 mL/min/kg. The half-life in [17] was 2.2 h; in [20] it was over 200 h. The Vd in [18] came to 1.5 L/kg. In [19], this compound came in with a bioavailability of 60%. In data set [1], this compound showed a log distribution coefficient (logD) of 2.6. Besides, the half-maximal inhibitory concentration (IC50) in the data set on rhinovirus A16 was 79.4 nM; with rhinovirus A2 it was 50.1 nM; on Cytochrome P450 1A2 [7], over 10000 nM; against Cytochrome P450 2C9 [8], over 10000 nM; against Cytochrome P450 2C19 [9], over 10000 nM; at Cytochrome P450 2D6 [10], over 10000 nM. For the same compound, the IC50 at Cytochrome P450 3A4 [22] was over 10000 nM; at Cytochrome P450 1A2 [11], over 50100 nM; against Cytochrome P450 2C9 [12] it was over 50100 nM; at Cytochrome P450 2C19 [13] it was over 50100 nM; against Cytochrome P450 2D6 [14] it was over 50100 nM; against Cytochrome P450 3A4 [23], over 50100 nM. The compound further gave a solubility (thermodynamic) in data set [2] of 125 µM (≈ 42.2 µg/mL). In addition, the fraction unbound was determined as 0.06 in data set [3] and 0.05 in [4]. Besides, the microsomal CLint in data set [5] is 26 µL/min/mg. This compound showed a hepatocyte CLint in data set [6] of 5 µL/min/1e6 cells. Moreover, the Papp in [21] was 47 ×10⁻⁶ cm/s. The compound also showed an EC50 in data set [15] of 31600 nM.
As to `Cc1ccc(N2CCC(CCOc3ccc(S(C)(=O)=O)cc3)CC2)nn1`, in the data set on rhinovirus A16, the IC50 was 2000 nM.
Consider `CCOc1nnc2cc(OCCC3CCN(c4ccc(C)nn4)CC3)ccn12`, for which the IC50 in the data set with rhinovirus A16 is 1580 nM.
The same measure, in the same setting: the same measure for `CCOC(=O)c1ccc(COCC2CCN(c3ccc(C)nn3)CC2)cc1`: 100 nM; for `Cc1ccc(N2CCC(CCOc3ccc([S+](C)[O-])cc3)CC2)nn1` (stereo not drawn): over 31600 nM; for `CCOC(=O)c1ccc(COC2CCN(c3ccc(C)nn3)CC2)cc1`: 25.1 nM.
Same read-out and setting: as for `CCOC(=O)c1ccc(OCCC2CN(c3ccc(C)nn3)CCO2)cc1` (stereo not drawn), the figure is 63.1 nM.

Source of the values: ChEMBL document CHEMBL1833869, “Effect of lipophilicity modulation on inhibition of human rhinovirus capsid binders” (Bioorg Med Chem Lett, 2011).
